Data reported in patent US10610487B2, “Salts of active ingredients with polymeric counterions” (BASF SE, priority 2015, dated 2020).
Converted amounts (≈) assume the structure as drawn. Read-outs that look alike come from different tables or passages of the source.

What was measured:
physchem = conditions: thermodynamic from solid
[1] = CD water, 100 mg haloperidol per 250 ml, hard gelatine capsule

solubility thermodynamic at 72 h (physchem; simulated gastric fluid) [µg/mL]	Release of haloperidol ([1]; 0 min) [%]	Release of haloperidol ([1]; 2 min) [%]	Release of haloperidol ([1]; 4 min) [%]	Release of haloperidol ([1]; 6 min) [%]	Release of haloperidol ([1]; 8 min) [%]	Release of haloperidol ([1]; 10 min) [%]	Release of haloperidol ([1]; 30 min) [%]	Release of haloperidol ([1]; 60 min) [%]	Release of haloperidol ([1]; 120 min) [%]	Structure (SMILES)	solubility thermodynamic at 72 h (physchem; water) [µg/mL]
600 (≈ 1600 µM)	0.0	0.1	0.2	0.3	0.4	0.6	1.5	1.8	2.3	O=C(CCCN1CCC(O)(c2ccc(Cl)cc2)CC1)c1ccc(F)cc1 [Haloperidol, haloperidol]	2.6 (≈ 6.92 µM)
–	–	–	–	–	–	–	–	–	–	CN(C)C(=O)C(CCN1CCC(O)(c2ccc(Cl)cc2)CC1)(c1ccccc1)c1ccccc1 [Loperamide, loperamide]	72.3 (≈ 152 µM)
